Measured values taken from patent US7645885B2, “Non-steroidal antiandrogens” (The Regents of the University of California, priority 2005, dated 2010).

Molecular target: T1, recombinant rat AR LBD (Rattus norvegicus, UniProt P15207)
T1 construct: recombinant rat AR LBD
T1 sequence (P15207 651-882 limits assumed): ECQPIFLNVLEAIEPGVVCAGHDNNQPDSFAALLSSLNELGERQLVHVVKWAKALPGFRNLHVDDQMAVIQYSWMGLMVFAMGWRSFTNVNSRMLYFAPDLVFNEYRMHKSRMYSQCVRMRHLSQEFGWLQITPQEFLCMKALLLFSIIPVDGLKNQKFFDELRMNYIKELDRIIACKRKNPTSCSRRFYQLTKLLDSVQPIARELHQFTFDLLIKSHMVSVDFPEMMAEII
Assay: competition fluorescence polarization binding assay
Details: relative binding affinity; ratio of Kd of test compound to Kd of DHT multiplied by 100
Experimental: Binding affinity of the synthesized ligands was evaluated by competition fluorescence polarization assay using recombinant rat AR LBD, and the results summarized in Table 1. All ligands with a bulky right-hand extension, such as compounds 18-20 in FIG. 5, performed poorly in this assay, with even the best compounds binding AR only weakly. […] In Table 1, RBA stands for relative binding affinity, and is defined as the ratio of Kd of the test compound to Kd of DHT multiplied by 100.

Row | Structure (SMILES) | RBA (DHT = 100)
1 | CC12Cc3cn[nH]c3C=C1CCCC2CCc1ccc(CO)cc1 (centres unmarked) [Compound 18, {4-[2-(4a-Methyl-4,4a,5,6,7,8-hexahydro-1H-benzo[f]indazol-5-yl)-ethyl]-phenyl}-methanol] | <0.1
2 | CC12Cc3cnoc3C=C1CCCC2CCc1ccc(CO)cc1 (centres unmarked) [Compound 19, {4-[2-(4a-Methyl-4,4a,5,6,7,8-hexahydro-naphtho[2,3-d]isoxazol-5-yl)-ethyl]-phenyl}-methanol] | <0.1

Second part, the compound after the results:

Row | RBA (DHT = 100) | Structure (SMILES)
3 | 0.12 | CC12Cc3cnn(-c4ccc(F)cc4)c3C=C1CCCC2CCc1ccc(CO)cc1 (centres unmarked) [Compound 20]
4 | 19 | CC12Cc3cnn(-c4ccc(F)cc4)c3C=C1CCCC2CCCO (stereo not drawn) [Compound 16, 3-(1-[4-Fluorophenyl]-4α-Methyl-4,4α,5,6,7,8-hexahydro-1H-benzo[f]indazol-5-yl)propan-1-ol]
5 | 1 | CC12Cc3cn[nH]c3C=C1CCCC2CCCO (stereo not drawn) [Compound 12, 3-(4α-Methyl-4,4α,5,6,7,8-hexahydro-1H-benzo[f]indazol-5-yl)propan-1-ol]
